Assay: Human plasma protein binding (equilibrium dialysis)
Type: in vitro ADME
Conditions: dialysis 18 hours
Experimental: The automated equilibrium dialysis assay in human plasma uses the RED (Rapid Equilibrium Dialysis) Device and sample handling. The assay generally runs over two to three days including delivery of results. After dialysis for 18 hours, plasma and buffer samples are prepared for analysis by liquid chromatography and mass spectrometry. Samples are generally tested in singlicates and quantified by LC/MSMS by using a 7-point calibration curve in plasma. The compounds are pooled together in plasma pools up to 10 compounds. Three reference compounds are used in each run, Propranolol, Metoprolol and Warfarin. Warfarin is used as a control in each pool and Propranolol and Metoprolol are placed randomly in each run. An in-house Excel macro is used for preparation of files for the robot and the mass spectrometer and is also used for the calculations of fraction unbound (fu %) in plasma.

| SMILES | Human plasma protein binding (% free) |
| --- | --- |
| Cc1ccc(OCCNCCCF)c(C)c1[C@@H]1c2[nH]c3ccccc3c2C[C@@H](C)N1CC(F)(F)F [Example 79, N-(2-(2,4-dimethyl-3-((1R,3R)-3-methyl-2-(2,2,2-trifluoroethyl)-2,3,4,9-tetrahydro-1H-pyrido[3,4-b]indol-1-yl)phenoxy)ethyl)-3-fluoropropan-1-amine] | <0.4 % free |
| C[C@@H]1Cc2c([nH]c3ccccc23)[C@@H](c2c(F)ccc(OCCNCCCF)c2F)N1CC1(S(C)(=O)=O)CC1 [Example 77, N-(2-(2,4-difluoro-3-((1R,3R)-3-methyl-2-((1-(methylsulfonyl)cyclopropyl)methyl)-2,3,4,9-tetrahydro-1H-pyrido[3,4-b]indol-1-yl)phenoxy)ethyl)-3-fluoropropan-1-amine] | 5.5 % free |
| C[C@@H]1Cc2c([nH]c3ccccc23)[C@@H](c2cccc(OCCNCCCF)n2)N1CC(F)(F)F [Example 34, 3-fluoro-N-(2-((6-((1S,3R)-3-methyl-2-(2,2,2-trifluoroethyl)-2,3,4,9-tetrahydro-1H-pyrido[3,4-b]indol-1-yl)pyridin-2-yl)oxy)ethyl)propan-1-amine] | 2.2 % free |
| C[C@@H]1Cc2c([nH]c3ccc(F)cc23)[C@@H](c2c(F)cnc(OCCNCCCF)c2F)N1CC(F)(F)CO [Example 65, 3-((1R,3R)-1-(3,5-difluoro-2-(2-((3-fluoropropyl)amino)ethoxy)pyridin-4-yl)-6-fluoro-3-methyl-1,3,4,9-tetrahydro-2H-pyrido[3,4-b]indol-2-yl)-2,2-difluoropropan-1-ol] | 1.9 % free |
| Cc1ccc2[nH]c3c(c2c1)C[C@@H](C)N(CC(F)(F)CO)[C@@H]3c1c(F)ccc(OCCNCCCF)c1F [Example 63, 3-((1R,3R)-1-(2,6-difluoro-3-(2-((3-fluoropropyl)amino)ethoxy)phenyl)-3,6-dimethyl-1,3,4,9-tetrahydro-2H-pyrido[3,4-b]indol-2-yl)-2,2-difluoropropan-1-ol] | 0.97 % free |
| COc1ccc(OCCNCCCF)nc1[C@@H]1c2[nH]c3ccccc3c2C[C@@H](C)N1CC(F)(F)F [Example 56, 3-fluoro-N-(2-((5-methoxy-6-((1S,3R)-3-methyl-2-(2,2,2-trifluoroethyl)-2,3,4,9-tetrahydro-1H-pyrido[3,4-b]indol-1-yl)pyridin-2-yl)oxy)ethyl)propan-1-amine] | 4.6 % free |
| Cc1c(OCCNCCC(F)F)ccc(F)c1[C@@H]1c2[nH]c3ccc(F)cc3c2C[C@@H](C)N1C[C@@H](C)C(=O)O [Example 162, (R)-3-((1R,3R)-1-(3-(2-((3,3-difluoropropyl)amino)ethoxy)-6-fluoro-2-methylphenyl)-6-fluoro-3-methyl-1,3,4,9-tetrahydro-2H-pyrido[3,4-b]indol-2-yl)-2-methylpropanoic Acid] | 27 % free |
| Cc1c([C@@H]2c3[nH]c4ccccc4c3C[C@@H](C)N2CC(F)(F)CO)ccnc1OCCNCCCF [Example 103, 2,2-difluoro-3-((1R,3R)-1-(2-(2-((3-fluoropropyl)amino)ethoxy)-3-methylpyridin-4-yl)-3-methyl-1,3,4,9-tetrahydro-2H-pyrido[3,4-b]indol-2-yl)propan-1-ol] | 2 % free |
| COc1ncc(NCCNCCCF)cc1[C@@H]1c2[nH]c3ccccc3c2C[C@@H](C)N1CC(F)(F)F [Example 41, N1-(3-fluoropropyl)-N2-(6-methoxy-5-((1R,3R)-3-methyl-2-(2,2,2-trifluoroethyl)-2,3,4,9-tetrahydro-1H-pyrido[3,4-b]indol-1-yl)pyridin-3-yl)ethane-1,2-diamine] | 1.8 % free |
| Cc1ccc2[nH]c3c(c2c1)C[C@@H](C)N(CC(F)(F)CO)[C@@H]3c1c(F)cnc(OCCNCCCF)c1F [Example 66, 3-((1R,3R)-1-(3,5-difluoro-2-(2-((3-fluoropropyl)amino)ethoxy)pyridin-4-yl)-3,6-dimethyl-1,3,4,9-tetrahydro-2H-pyrido[3,4-b]indol-2-yl)-2,2-difluoropropan-1-ol] | 1.3 % free |
| Cc1c(OCCN(C)CCCF)ncc(F)c1[C@@H]1c2[nH]c3ccccc3c2C[C@@H](C)N1C(C)CC(=O)O (single isomer, unassigned) [Example 158] | 21 % free |
| C[C@@H]1Cc2c([nH]c3ccccc23)[C@@H](c2cc(OCCNCCCF)cc(F)c2F)N1CC(F)(F)F [Example 30, N-(2-(3,4-difluoro-5-((1R,3R)-3-methyl-2-(2,2,2-trifluoroethyl)-2,3,4,9-tetrahydro-1H-pyrido[3,4-b]indol-1-yl)phenoxy)ethyl)-3-fluoropropan-1-amine] | 0.72 % free |
| C[C@@H]1Cc2c([nH]c3ccccc23)[C@@H](c2c(F)ccc(OCCNCCCF)c2Cl)N1CC(C)(C)C(=O)O [Example 131, 3-((1R,3R)-1-(2-chloro-6-fluoro-3-(2-((3-fluoropropyl)amino)ethoxy)phenyl)-3-methyl-1,3,4,9-tetrahydro-2H-pyrido[3,4-b]indol-2-yl)-2,2-dimethylpropanoic acid] | 32 % free |
| Cc1c(N(C)CCNCCCF)ccc(F)c1[C@@H]1c2[nH]c3ccccc3c2C[C@@H](C)N1C[C@H](C)C(=O)O [Example 136, (S)-3-((1R,3R)-1-(6-fluoro-3-((2-((3-fluoropropyl)amino)ethyl)(methyl)amino)-2-methylphenyl)-3-methyl-1,3,4,9-tetrahydro-2H-pyrido[3,4-b]indol-2-yl)-2-methylpropanoic acid] | 2.1 % free |
| COc1ccc(OCCNCCCF)c(F)c1[C@@H]1c2[nH]c3ccccc3c2C[C@@H](C)N1CC(F)(F)CO [Example 81, 2,2-difluoro-3-((1R,3R)-1-(2-fluoro-3-(2-((3-fluoropropyl)amino)ethoxy)-6-methoxyphenyl)-3-methyl-1,3,4,9-tetrahydro-2H-pyrido[3,4-b]indol-2-yl)propan-1-ol] | 2.9 % free |
| CCc1ccc(OCCNCCCF)cc1[C@@H]1c2[nH]c3ccccc3c2C[C@@H](C)N1CC(F)(F)F [Example 21, N-(2-(4-ethyl-3-((1R,3R)-3-methyl-2-(2,2,2-trifluoroethyl)-2,3,4,9-tetrahydro-1H-pyrido[3,4-b]indol-1-yl)phenoxy)ethyl)-3-fluoropropan-1-amine] | 0.10 % free |
| COc1cc(F)c(NCCNCCCF)cc1[C@@H]1c2[nH]c3ccccc3c2C[C@@H](C)N1CC(F)(F)F [Example 91, N1-(2-fluoro-4-methoxy-5-((1R,3R)-3-methyl-2-(2,2,2-trifluoroethyl)-2,3,4,9-tetrahydro-1H-pyrido[3,4-b]indol-1-yl)phenyl)-N2-(3-fluoropropyl)ethane-1,2-diamine] | 0.93 % free |
| C[C@@H]1Cc2c([nH]c3ccccc23)[C@@H](c2cccc(OCCNCCCF)c2C#N)N1CC(F)(F)F [Example 69, 2-(2-((3-fluoropropyl)amino)ethoxy)-6-((1R,3R)-3-methyl-2-(2,2,2-trifluoroethyl)-2,3,4,9-tetrahydro-1H-pyrido[3,4-b]indol-1-yl)benzonitrile] | 2.2 % free |
| C[C@@H]1Cc2c([nH]c3ccccc23)[C@@H](c2cccc(OCCNCCCF)c2Cl)N1CC(F)(F)F [Example 25, N-(2-(2-chloro-3-((1R,3R)-3-methyl-2-(2,2,2-trifluoroethyl)-2,3,4,9-tetrahydro-1H-pyrido[3,4-b]indol-1-yl)phenoxy)ethyl)-3-fluoropropan-1-amine] | 0.080 % free |
| COc1c(F)cc(OCCNCCCF)c(F)c1[C@@H]1c2[nH]c3ccccc3c2C[C@@H](C)N1CC(F)(F)F [Example 29, N-(2-(2,5-difluoro-4-methoxy-3-((1R,3R)-3-methyl-2-(2,2,2-trifluoroethyl)-2,3,4,9-tetrahydro-1H-pyrido[3,4-b]indol-1-yl)phenoxy)ethyl)-3-fluoropropan-1-amine] | <3.2 % free |
| C[C@@H]1Cc2c([nH]c3ccccc23)[C@@H](c2cc(OCCNCCCF)ccc2CO)N1CC(F)(F)F [Example 70, (4-(2-((3-fluoropropyl)amino)ethoxy)-2-((1R,3R)-3-methyl-2-(2,2,2-trifluoroethyl)-2,3,4,9-tetrahydro-1H-pyrido[3,4-b]indol-1-yl)phenyl)methanol] | 23 % free |
| C[C@@H]1Cc2c([nH]c3ccccc23)[C@@H](c2cc(F)cc(OCCNCCCF)c2F)N1CC(F)(F)F [Example 31, N-(2-(2,5-difluoro-3-((1R,3R)-3-methyl-2-(2,2,2-trifluoroethyl)-2,3,4,9-tetrahydro-1H-pyrido[3,4-b]indol-1-yl)phenoxy)ethyl)-3-fluoropropan-1-amine] | 0.41 % free |
| COc1c(F)cc(OCCNCCCF)cc1[C@@H]1c2[nH]c3ccccc3c2C[C@@H](C)N1CC(F)(F)F [Example 27, 3-fluoro-N-(2-(3-fluoro-4-methoxy-5-((1R,3R)-3-methyl-2-(2,2,2-trifluoroethyl)-2,3,4,9-tetrahydro-1H-pyrido[3,4-b]indol-1-yl)phenoxy)ethyl)propan-1-amine] | 0.42 % free |
| C[C@@H]1Cc2c([nH]c3cc(F)ccc23)[C@@H](c2c(F)ccc(OCCNCCCF)c2F)N1CC(F)(F)CO [Example 61, 3-((1R,3R)-1-(2,6-difluoro-3-(2-((3-fluoropropyl)amino)ethoxy)phenyl)-7-fluoro-3-methyl-1,3,4,9-tetrahydro-2H-pyrido[3,4-b]indol-2-yl)-2,2-difluoropropan-1-ol] | 2.0 % free |
| C[C@@H]1Cc2c([nH]c3ccccc23)[C@@H](c2c(F)c(F)cc(OCCNCCCF)c2F)N1CC(F)(F)F [Example 32, 3-fluoro-N-(2-(2,4,5-trifluoro-3-((1R,3R)-3-methyl-2-(2,2,2-trifluoroethyl)-2,3,4,9-tetrahydro-1H-pyrido[3,4-b]indol-1-yl)phenoxy)ethyl)propan-1-amine] | 0.52 % free |
